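Where inhibition never reached the appropriate level, the endpoint shown equals the highest concentration tested. Otherwise, values were interpolated linearly from a five-concentration, 48-hour dose response in 96-well plates. Abbreviation: GI50, concentration required for 50% inhibition of growth.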 Calls of active or inactive are those of the source. Rule as the data show it: active = GI50 up to about 1.1 µM and inactive = higher.
Legend:
Assay in all cases: NCI tumour cell line growth inhibition, 48 h
786-0 = system: 786-0
A498 = system: A498
A549 = system: A549
ACHN = system: ACHN
BT-549 = system: BT-549
CAKI-1 = system: CAKI-1
CCRF-CEM = system: CCRF-CEM
COLO 205 = system: COLO 205
DU-145 = system: DU-145
EKVX = system: EKVX
HCC 2998 = system: HCC 2998
HCT-116 = system: HCT-116
HCT-15 = system: HCT-15
HL-60 = system: HL-60
HOP-62 = system: HOP-62
HOP-92 = system: HOP-92
HT-29 = system: HT-29
Hs-578T = system: Hs-578T
IGROV-1 = system: IGROV-1
KM12 = system: KM12
LOX IMVI = system: LOX IMVI
M14 = system: M14
MCF7 = system: MCF7
MDA-MB-231 = system: MDA-MB-231
MDA-MB-435 = system: MDA-MB-435
MDA-N = system: MDA-N
MOLT-4 = system: MOLT-4
Malme-3M = system: Malme-3M
NCI-H226 = system: NCI-H226
NCI-H23 = system: NCI-H23
NCI-H522 = system: NCI-H522
NCI/ADR-RES = system: NCI/ADR-RES
OVCAR-3 = system: OVCAR-3
OVCAR-4 = system: OVCAR-4
OVCAR-5 = system: OVCAR-5
OVCAR-8 = system: OVCAR-8
PC-3 = system: PC-3
RPMI-8226 = system: RPMI-8226
RXF 393 = system: RXF 393
SF-268 = system: SF-268
SF-295 = system: SF-295
SF-539 = system: SF-539
SK-MEL-28 = system: SK-MEL-28
SK-MEL-2 = system: SK-MEL-2
SK-MEL-5 = system: SK-MEL-5
SK-OV-3 = system: SK-OV-3
SN12C = system: SN12C
SNB-19 = system: SNB-19
SNB-75 = system: SNB-75
SR = system: SR
SW-620 = system: SW-620
T47D = system: T47D
TK-10 = system: TK-10
U-251 = system: U-251
UACC-257 = system: UACC-257
UACC-62 = system: UACC-62
UO-31 = system: UO-31
K562 = system: K562
NCI-H460 = system: NCI-H460

Structure (SMILES): COc1ccc(C(OCC2OC(n3cc(C)c(=O)[nH]c3=O)CC2n2cc(Cn3cc(Br)c(=O)[nH]c3=O)nn2)(c2ccccc2)c2ccccc2)cc1 (stereo unspecified)
- GI50 (786-0): > 100000 nM (inactive)
- GI50 (A498): > 100000 nM (inactive)
- GI50 (A549): > 100000 nM (inactive)
- GI50 (ACHN): > 100000 nM (inactive)
- GI50 (BT-549): > 100000 nM (inactive)
- GI50 (CAKI-1): > 100000 nM (inactive)
- GI50 (CCRF-CEM): 2530 nM (inactive)
- GI50 (COLO 205): > 100000 nM (inactive)
- GI50 (DU-145): > 100000 nM (inactive)
- GI50 (EKVX): > 100000 nM (inactive)
- GI50 (HCC 2998): > 100000 nM (inactive)
- GI50 (HCT-116): > 100000 nM (inactive)
- GI50 (HCT-15): > 100000 nM
- GI50 (HL-60): 2070 nM (inactive)
- GI50 (HOP-62): > 100000 nM (inactive)
- GI50 (HOP-92): > 100000 nM (inactive)
- GI50 (HT-29): > 100000 nM (inactive)
- GI50 (Hs-578T): > 100000 nM (inactive)
- GI50 (IGROV-1): 38500 nM (inactive)
- GI50 (KM12): 50900 nM (inactive)
- GI50 (LOX IMVI): > 100000 nM (inactive)
- GI50 (M14): > 100000 nM (inactive)
- GI50 (MCF7): 16000 nM (inactive)
- GI50 (MDA-MB-231): > 100000 nM (inactive)
- GI50 (MDA-MB-435): 6550 nM (inactive)
- GI50 (MDA-N): 21000 nM (inactive)
- GI50 (MOLT-4): 4360 nM (inactive)
- GI50 (Malme-3M): > 100000 nM (inactive)
- GI50 (NCI-H226): > 100000 nM (inactive)
- GI50 (NCI-H23): > 100000 nM (inactive)
- GI50 (NCI-H522): > 100000 nM (inactive)
- GI50 (NCI/ADR-RES): > 100000 nM (inactive)
- GI50 (OVCAR-3): > 100000 nM (inactive)
- GI50 (OVCAR-4): > 100000 nM (inactive)
- GI50 (OVCAR-5): > 100000 nM (inactive)
- GI50 (OVCAR-8): > 100000 nM (inactive)
- GI50 (PC-3): 32500 nM (inactive)
- GI50 (RPMI-8226): 5050 nM (inactive)
- GI50 (RXF 393): > 100000 nM (inactive)
- GI50 (SF-268): > 100000 nM (inactive)
- GI50 (SF-295): > 100000 nM (inactive)
- GI50 (SF-539): > 100000 nM (inactive)
- GI50 (SK-MEL-28): > 100000 nM (inactive)
- GI50 (SK-MEL-2): > 100000 nM (inactive)
- GI50 (SK-MEL-5): > 100000 nM (inactive)
- GI50 (SK-OV-3): > 100000 nM (inactive)
- GI50 (SN12C): > 100000 nM (inactive)
- GI50 (SNB-19): > 100000 nM (inactive)
- GI50 (SNB-75): > 100000 nM (inactive)
- GI50 (SR): > 100000 nM (inactive)
- GI50 (SW-620): > 100000 nM (inactive)
- GI50 (T47D): > 100000 nM (inactive)
- GI50 (TK-10): > 100000 nM (inactive)
- GI50 (U-251): 66500 nM (inactive)
- GI50 (UACC-257): > 100000 nM (inactive)
- GI50 (UACC-62): > 100000 nM (inactive)
- GI50 (UO-31): > 100000 nM (inactive)

Structure (SMILES): O=[N+]([O-])c1cccc2nc3ccccc3c(NCCC[N+]3([O-])CCOCC3)c12
- GI50 (786-0): 116 nM (active)
- GI50 (A498): 164 nM (active)
- GI50 (A549): 95.9 nM (active)
- GI50 (ACHN): 650 nM (active)
- GI50 (BT-549): 373 nM (active)
- GI50 (CAKI-1): 2650 nM (inactive)
- GI50 (CCRF-CEM): 93.3 nM (active)
- GI50 (COLO 205): 73.1 nM (active)
- GI50 (DU-145): 206 nM (active)
- GI50 (EKVX): 177 nM (active)
- GI50 (HCC 2998): 12.8 nM (active)
- GI50 (HCT-116): 94.8 nM (active)
- GI50 (HCT-15): 1360 nM
- GI50 (HL-60): 245 nM (active)
- GI50 (HOP-62): 119 nM (active)
- GI50 (HOP-92): 93.5 nM (active)
- GI50 (HT-29): 85.9 nM (active)
- GI50 (Hs-578T): 433 nM (active)
- GI50 (IGROV-1): 150 nM (active)
- GI50 (K562): 223 nM (active)
- GI50 (KM12): 187 nM (active)
- GI50 (LOX IMVI): 281 nM (active)
- GI50 (M14): 238 nM (active)
- GI50 (MCF7): 54.8 nM (active)
- GI50 (MDA-MB-231): 247 nM (active)
- GI50 (MDA-MB-435): 157 nM (active)
- GI50 (MDA-N): 130 nM (active)
- GI50 (MOLT-4): 68.7 nM (active)
- GI50 (Malme-3M): 162 nM (active)
- GI50 (NCI-H226): 186 nM (active)
- GI50 (NCI-H23): 79.1 nM (active)
- GI50 (NCI-H460): 94.2 nM (active)
- GI50 (NCI-H522): 63.1 nM (active)
- GI50 (NCI/ADR-RES): 11400 nM (inactive)
- GI50 (OVCAR-3): 170 nM (active)
- GI50 (OVCAR-4): 120 nM (active)
- GI50 (OVCAR-5): 327 nM (active)
- GI50 (OVCAR-8): 210 nM (active)
- GI50 (PC-3): 177 nM (active)
- GI50 (RPMI-8226): 193 nM (active)
- GI50 (RXF 393): 106 nM (active)
- GI50 (SF-268): 164 nM (active)
- GI50 (SF-295): 275 nM (active)
- GI50 (SF-539): 275 nM (active)
- GI50 (SK-MEL-28): 290 nM (active)
- GI50 (SK-MEL-2): 175 nM (active)
- GI50 (SK-MEL-5): 78.2 nM (active)
- GI50 (SK-OV-3): 281 nM (active)
- GI50 (SN12C): 171 nM (active)
- GI50 (SNB-19): 280 nM (active)
- GI50 (SNB-75): 195 nM (active)
- GI50 (SR): 26 nM (active)
- GI50 (SW-620): 131 nM (active)
- GI50 (T47D): 171 nM (active)
- GI50 (TK-10): 697 nM (active)
- GI50 (U-251): 209 nM (active)
- GI50 (UACC-257): 351 nM (active)
- GI50 (UACC-62): 154 nM (active)
- GI50 (UO-31): 1670 nM (inactive)
